Results published in patent US20060122181A1, “Heteroaromatic pentacyclic compound and medicinal use thereof” (Japan Tobacco Inc., priority 2003, published 2006).

Test system: not given
Experiment: not given
Conditions: not given

| melting point | SMILES |
| --- | --- |
| 137 to 138 °C | CCCC(CCC)c1ccc(COc2ccc(-c3csc(CN4CCN(c5ccccc5C(=O)O)CC4)n3)cc2)cc1 [Example 1-155] |
| 153 to 154 °C | CCCC(CCC)c1ccc(COc2ccc(-c3csc(CN4CCN(c5cccc(C(=O)O)c5)CC4)n3)cc2)cc1 [Example 1-156] |
| 199 to 200 °C | CCCC(CCC)c1ccc(Cn2cc(-c3csc(COc4ccc(C(=O)O)cc4)n3)c3ccccc32)cc1 [Example 1-157] |
| 147 to 152 °C | CCCC(CCC)c1ccc2c(c1)nc(-c1csc(COc3ccc(C(=O)O)cc3)n1)n2Cc1ccc(C(C)C)cc1 [Example 1-158] |
| 151 to 155 °C (dec.) | CCCC(CCC)c1ccc(OCc2ccc(-c3csc(COc4cncc(C(=O)O)c4)c3)cc2)cc1.O=S(=O)(O)O [Example 4-48] |
| 133.1 to 136.5 °C | CCCC(CCC)c1ccc(OCc2ccc(-c3ccc(CN(CC(=O)O)S(C)(=O)=O)s3)cc2)cc1 [Example 4-49] |
| 176 to 182 °C | CCCC(CCC)c1ccc(OCc2ccc(-c3csc(CN(CCC(C)C)CC(=O)O)c3)cc2)cc1 [Example 4-71] |
| 202.8 to 206.4 °C | CCCC(CCC)c1ccc(OCc2ccc(-c3ccc(CN(CC(=O)O)Cc4cccc(C(=O)O)c4)s3)cc2)cc1 [Example 4-76] |
| 82 to 84 °C | CCCC(CCC)c1ccc(OCc2ccc(-c3ccc(CN(CC(=O)OCC)Cc4nc5ccccc5n4C)s3)cc2)cc1 [Example 4-83] |
| 161 to 166 °C | CC(C)(C)Cc1nc2ccccc2n1Cc1ccc(-c2csc(CN(CC(=O)O)Cc3ccccc3)c2)cc1 [Example 4-85] |
| 170.5 to 171.9 °C | CCCC(CCC)c1ccc(OCc2ccc(-c3csc(CN(CC(=O)O)Cc4cn(C)c5ccccc45)c3)cc2)cc1 [Example 4-86] |
| 120.7 to 123.3 °C | CCCCOc1ccc(S(=O)(=O)N(CC)c2ccc(-c3csc(CN(CC(=O)O)Cc4ccccc4)c3)cc2)cc1 [Example 4-103] |
| 202.3 to 204.2 °C | O=C(O)CN(Cc1ccccc1)Cc1cc(-c2ccc(COc3cc(Cl)cc(Cl)c3)cc2)cs1 [Example 4-105] |

Target: T1, Recombinant human protein tyrosine phosphatase 1B (Homo sapiens, UniProt P18031)
T1 construct: purchased UBI
T1 sequence (P18031 1-435): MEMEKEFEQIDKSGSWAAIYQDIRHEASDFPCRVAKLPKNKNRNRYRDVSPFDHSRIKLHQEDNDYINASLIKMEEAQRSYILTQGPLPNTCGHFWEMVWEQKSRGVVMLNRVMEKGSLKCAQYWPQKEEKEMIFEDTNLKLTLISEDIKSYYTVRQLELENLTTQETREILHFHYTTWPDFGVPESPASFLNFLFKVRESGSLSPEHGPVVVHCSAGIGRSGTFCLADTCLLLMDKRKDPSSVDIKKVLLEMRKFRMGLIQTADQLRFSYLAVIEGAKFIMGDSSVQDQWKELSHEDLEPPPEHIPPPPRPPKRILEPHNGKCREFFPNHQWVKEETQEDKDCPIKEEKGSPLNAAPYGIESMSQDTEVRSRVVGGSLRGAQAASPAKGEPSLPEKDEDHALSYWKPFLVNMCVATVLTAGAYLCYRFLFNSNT
Experiment: Protein tyrosine phosphatase 1B inhibitory activity (malachite green, phosphorylated insulin receptor peptide substrate)
Format: biochemical
Conditions: recombinant human PTP1B, 60 min room temperature, absorbance 650 nm
Method: Preparation of Assay Buffer:
A 50 mM Tris-HCl buffer (pH 7.5), 50 mM NaCl and 3 mM dithiothreitol (DTT) were prepared.
[…] 0.1, 0.3, 1, 3 and 10 μM of the test compound were prepared and diluted with the above-mentioned assay buffer to the final dimethyl sulfoxide (DMSO) concentration of not more than 1%. As the control, the assay buffer was used.
Preparation of Substrate:
Recombinant human protein tyrosine phosphatase 1B (manufactured by UBI) was diluted with the above-mentioned assay buffer (1.2 ng/25 μl).
The sample (10 μl) prepared as mentioned above and a substrate (25 μl) were successively added to a 96 well plate, and the enzyme (25 μl) prepared as mentioned above was added and mixed. The mixture was incubated at room temperature for 60 min and a malachite green (120 μl, Biomol), which is a color reagent, was added. The mixture was further incubated at room temperature for 20 min to allow for color development. An absorbance at 650 nm was measured on a plate reader based on which the protein tyrosine phosphatase 1B inhibitory activity of the test compound was evaluated.

| IC50 | SMILES |
| --- | --- |
| 0.14 µM | CCCC(CCC)c1ccc(OCc2ccc(-c3csc(CN(C)S(=O)(=O)c4ccc(C(=O)O)cc4)n3)cc2)cc1 [Example 1-50] |
| 0.24 µM | CN(Cc1ccc(C(=O)O)cc1)c1nc(-c2ccc(C(=O)Nc3ccc(C4CCCCC4)cc3)cc2)cs1 [Example 1-53] |
| 0.37 µM | CCCC(CCC)c1ccc(COc2ccc(-c3csc(CN4CCN(c5ccccc5C(=O)O)CC4)n3)cc2)cc1 [Example 1-155] |
| 0.19 µM | CCCC(CCC)c1ccc(COc2ccc(-c3csc(CN4CCN(c5cccc(C(=O)O)c5)CC4)n3)cc2)cc1 [Example 1-156] |
| 0.17 µM | CCCC(CCC)c1ccc(Cn2cc(-c3csc(COc4ccc(C(=O)O)cc4)n3)c3ccccc32)cc1 [Example 1-157] |
| 0.29 µM | CCCC(CCC)c1ccc2c(c1)nc(-c1csc(COc3ccc(C(=O)O)cc3)n1)n2Cc1ccc(C(C)C)cc1 [Example 1-158] |
| 0.073 µM | CN(Cc1ccc(C2CCC(C)(C)CC2)cc1)c1ccc(-c2csc(CN(CC(=O)O)Cc3ccccc3)n2)cc1 [Example 3-35] |
| 0.15 µM | CCCC(CCC)c1ccc(OCc2ccc(-c3ccc(CN(CC(=O)O)Cc4nc5ccccc5n4C)s3)cc2)cc1 [Example 4-1] |
| 0.17 µM | CCCC(CCC)c1ccc(OCc2ccc(-c3csc(CN(CC(=O)O)Cc4nc5ccccc5n4C)c3)cc2)cc1 [Example 4-30] |
| 0.087 µM | CCCC(CCC)c1ccc(OCc2ccc(-c3ccc(CN(CC(=O)O)Cc4nc(C(C)(C)C)cs4)s3)cc2)cc1 [Example 4-35] |
| 0.16 µM | CCCC(CCC)c1ccc(OCc2ccc(-c3ccc(C(=O)N(CC(=O)O)Cc4ncc(C(C)(C)C)s4)s3)cc2)cc1 [Example 4-43] |
| 0.15 µM | CCCC(CCC)c1ccc(OCc2ccc(-c3ccc(C(=O)N4CCN(c5ccc(C(=O)O)cc5)CC4)s3)cc2)cc1 [Example 4-52] |
| 0.2 µM | CCCC(CCC)c1ccc(OCc2ccc(-c3csc(COc4cc(C(=O)O)ccc4NC(=O)CN(C)C)c3)cc2)cc1 [Example 4-56] |
| 0.18 µM | CCCC(CCC)c1ccc(OCc2ccc(-c3csc(COc4cc(C(=O)O)ccc4N(C)S(C)(=O)=O)c3)cc2)cc1 [Example 4-59] |
| 0.29 µM | CCCC(CCC)c1ccc(OCc2ccc(-c3csc(CN(CC(=O)O)C(=O)N(C)c4ccccc4)c3)cc2)cc1 [Example 4-72] |
| < 0.1 µM | CCCC(CCC)c1ccc(OCc2ccc(-c3ccc(CN(CC(=O)O)C(c4ccccc4)c4ccccc4)s3)cc2)cc1 [Example 4-81] |
